This is an account of results in patent publication US20250066370A1, “BICYCLIC TRIAZINE DERIVATIVES FOR THE TREATMENT OF CANCER” (DEUTSCHES KREBSFORSCHUNGSZENTRUM, priority 2022, published 2025).

One assay has as its target CDK9/CyclinT1 (Homo sapiens (Human), UniProt P50750). Nature of the assay: CDK9/CycT1 high ATP kinase assay (TR-FRET). In kind it is biochemical. Particulars: 2 mM ATP (high ATP); median; read-out: CDK9/CyclinT1, 2 mM ATP (high ATP), IC50 - [mol/l] (median). As to the method: CDK9/CycT1-inhibitory activity of compounds of the present invention at a high ATP concentration after preincubation of enzyme and test compounds was quantified employing the CDK9/CycT1 TR-FRET assay as described in the following paragraphs.
Recombinant full-length His-tagged human CDK9 and CycT1, expressed in insect cells and purified by Ni-NTA affinity chromatography, were purchased from Life Technologies (Cat. No PV4131). As substrate for the kinase reaction biotinylated peptide biotin-Ttds-YISPLKSPYKISEG (C-terminus in amide form) was used which can be purchased e.g. form the company JERINI peptide technologies (Berlin, Germany).
For the assay 50 nanoL of a 100 fold concentrated solution of the test compound in DMSO was pipetted into either a black low volume 384 well microtiter plate or a black 1536 well microtiter plate (both Greiner Bio-One, Frickenhausen, Germany), 2 microL of a solution of CDK9/CycT1 in aqueous assay buffer [50 millimol/L Tris/HCl PH 8.0, 10 millimol/L MgCl2, 1.0 millimol/L dithiothreitol, 0.1 millimol/L sodium ortho-vanadate, 0.01% (v/v) Nonidet-P40 (Sigma)] were added and the mixture was incubated for 15 min at 22° C. to allow pre-binding of the test compounds to the enzyme before the start of the kinase reaction. Then the kinase reaction was started by the addition of 3 microL of a solution of adenosine-tri-phosphate (ATP, 3.3 millimol/L=>final conc. in the 5 microL assay volume is 2 millimol/L) and substrate (1.25 micromol/L=>final conc. in the 5 microL assay volume is 0.75 micromol/L) in assay buffer and the resulting mixture was incubated for a reaction time of 25 min at 22° C. The concentration of CDK9/CycT1 was adjusted depending of the activity of the enzyme lot and was chosen appropriate to have the assay in the linear range, typical concentrations were in the range of 0.5 microg/ml. The reaction was stopped by the addition of 3 microL of a solution of TR-FRET detection reagents (0.33 micromol/L streptavidine-XL665 [Cisbio Bioassays, Codolet, France] and 1.67 nanomol/L anti-RB (pSer807/pSer811)-antibody from BD Pharmingen [#558389] and 2 nanomol/L LANCE EU-W1024 labeled anti-mouse IgG antibody [Perkin-Elmer, product no. AD0077]) in an aqueous EDTA-solution (167 millimol/L EDTA, 0.2% (w/v) bovine serum albumin in 100 millimol/L HEPES pH 7.5).
The resulting mixture was incubated 1 h at 22° C. to allow the formation of complex between the phosphorylated biotinylated peptide and the detection reagents. Subsequently the amount of phosphorylated substrate was evaluated by measurement of the resonance energy transfer from the Eu-chelate to the streptavidine-XL. Therefore, the fluorescence emissions at 620 nm and 665 nm after excitation at 350 nm was measured in a TR-FRET reader, e.g. a Pherastar (BMG Labtechnologies, Offenburg, Germany) or a Viewlux (Perkin-Elmer). The ratio of the emissions at 665 nm and at […] was taken as the measure for the amount of phosphorylated substrate. The data were normalised (enzyme reaction without inhibitor=0% inhibition, all other assay components but no enzyme=100% inhibition).
A general note: In TR-FRET formats the signal depends on donor and acceptor labels being close together.

The subject of assay [1] is CAL-120, human breast adenocarcinoma cells. Nature of the assay: Proliferation assay CAL-120 (crystal violet). In kind it is cell-based. Particulars: 96 h, CAL-120 parental cells, 4 days, median, read-out: Prolif-CAL-120, IC50 - [mol/l] (median). Here is the method:
Human tumour cells were originally obtained from the American Type Culture Collection (ATCC), or from the Deutsche Sammlung von Mikroorganismen und Zellkulturen (DSMZ, German Collection of Microorganisms and Cell Cultures). Cultivated tumour cells (CAL-120, human breast adenocarcinoma cells, DSMZ ACC-459; MDA-MB-231, human breast cancer cells, ATCC HTB-26) were plated at a density of 4,000 cells/well in a 96-well multitier plate in 200 microL of their respective growth medium supplemented 10% fetal calf serum. After 24 hours, the cells of one plate (zero-point plate) were stained with crystal violet (see below), while the medium of the other plates was supplemented with the test substances in various concentrations (0 micromol/L, as well as in the range of 0.01-10 micromol/L; the final concentration of the solvent dimethyl sulfoxide was adjusted to 0.1%) using a Tecan HP D300 Digital Dispenser. The cells were incubated for 4 days in the presence of test substances. Cell proliferation was determined by staining the cells with crystal violet: the cells were fixed by adding 20 microL/measuring point of an 11% glutaric aldehyde solution for 15 minutes at room temperature. After three washing cycles of the fixed cells with water, the plates were dried at room temperature. The cells were stained by adding 100 microL/measuring point of a 0.1% crystal violet solution (pH 3.0). After three washing cycles of the stained cells with water, the plates were dried at room temperature. The dye was dissolved by adding 100 microL/measuring point of a 10% acetic acid solution. The extinction was determined by photometry at a wavelength of 595 nm. The change of cell number, in percent, was calculated by normalization of the measured values to the extinction values of the zero-point plate (=0%) and the extinction of the untreated (0 μM) cells (=100%). The IC50 values (inhibitory concentration at 50% of maximal effect) were determined by means of a 4 parameter fit.

Another assay concerns the target CDK12 (Homo sapiens (Human), UniProt Q9NYV4). Description: CDK12 nuclear protein level: immunofluorescence/high content analysis in CAL-120 cells. In kind it is cell-based. The conditions noted are these: 24 h, nuclear CDK12 staining intensity, median, read-out: CDK12 degradation IF, DC50 - [mol/l] (median). As to the method:
In the context of the present invention, the term “DC50 CDK12” refers to the DC50 values obtained according to the assay described in this section (7) herein below, i.e. the DC50 values for the degradation of CDK12.
CAL-120 human breast cancer cells (DSMZ ACC 459) are seeded in 1536-well microtiter plates (800 cells per well) containing 50 nanoL of compounds in Dose-Response. Control wells received DMSO or Example 4. Plates are then incubated for 24 h at 37° C. in an humidified incubator and fixed with 4% PFA for 10 min. Then immunofluorescence (IF) against CDK12 (CellSignalling CDK12 Antibody #11973, rabbit, 1:100 dilution) is performed using standard IF protocols. Cells are then stained with Hoechst 33342 (Life Technologies, H-1399, 0.1 microg/ml) and imaged on an automated confocal microscopy system (e.g. Perkin Elmer Opera Phenix). Nuclear and cytoplasmic intensity as well as the nuclear/cytoplasmic intensity ratio is determined by automated image analysis using custom generated scripts (MetaXpress). Data is then transferred to Genedata Screener software, normalized to DMSO and control and DC50 values (degrading concentration to achieve 50% reduction of nuclear CDK12 staining intensity relative to controls) are reported.

Chain of CDK9/CyclinT1 (P50750 whole entry): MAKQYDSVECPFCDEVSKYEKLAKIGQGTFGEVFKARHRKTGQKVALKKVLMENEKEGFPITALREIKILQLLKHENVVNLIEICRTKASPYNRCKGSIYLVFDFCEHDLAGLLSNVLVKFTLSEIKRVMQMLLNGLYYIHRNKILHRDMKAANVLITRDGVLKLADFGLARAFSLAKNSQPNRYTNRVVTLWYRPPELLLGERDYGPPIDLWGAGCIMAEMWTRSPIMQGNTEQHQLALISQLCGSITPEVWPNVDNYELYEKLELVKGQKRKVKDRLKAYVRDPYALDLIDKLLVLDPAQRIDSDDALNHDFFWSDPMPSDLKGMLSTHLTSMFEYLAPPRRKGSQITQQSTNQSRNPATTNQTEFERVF
Chain of CDK9/CyclinT1 (O60563 whole entry partner): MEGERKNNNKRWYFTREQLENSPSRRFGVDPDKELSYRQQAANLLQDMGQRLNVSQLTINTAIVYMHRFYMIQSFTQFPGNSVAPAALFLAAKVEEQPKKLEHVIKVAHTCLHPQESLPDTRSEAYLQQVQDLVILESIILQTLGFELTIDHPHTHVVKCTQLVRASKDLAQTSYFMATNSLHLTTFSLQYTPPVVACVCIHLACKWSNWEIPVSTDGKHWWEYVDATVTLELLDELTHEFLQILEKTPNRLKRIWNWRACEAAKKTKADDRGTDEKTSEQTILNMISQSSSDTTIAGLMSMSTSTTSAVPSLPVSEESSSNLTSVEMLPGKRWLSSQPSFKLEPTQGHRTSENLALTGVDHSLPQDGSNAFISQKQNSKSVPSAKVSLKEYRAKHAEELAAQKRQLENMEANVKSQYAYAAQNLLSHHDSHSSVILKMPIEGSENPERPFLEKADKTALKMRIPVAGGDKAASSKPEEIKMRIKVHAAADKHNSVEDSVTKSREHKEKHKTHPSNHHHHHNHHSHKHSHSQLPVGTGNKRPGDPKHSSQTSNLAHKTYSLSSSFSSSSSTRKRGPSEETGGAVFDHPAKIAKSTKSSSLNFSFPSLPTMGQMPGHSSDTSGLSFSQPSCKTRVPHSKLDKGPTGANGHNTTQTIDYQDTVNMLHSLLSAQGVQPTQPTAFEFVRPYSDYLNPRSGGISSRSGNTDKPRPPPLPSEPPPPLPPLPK
Chain of CDK12 (Q9NYV4 whole entry): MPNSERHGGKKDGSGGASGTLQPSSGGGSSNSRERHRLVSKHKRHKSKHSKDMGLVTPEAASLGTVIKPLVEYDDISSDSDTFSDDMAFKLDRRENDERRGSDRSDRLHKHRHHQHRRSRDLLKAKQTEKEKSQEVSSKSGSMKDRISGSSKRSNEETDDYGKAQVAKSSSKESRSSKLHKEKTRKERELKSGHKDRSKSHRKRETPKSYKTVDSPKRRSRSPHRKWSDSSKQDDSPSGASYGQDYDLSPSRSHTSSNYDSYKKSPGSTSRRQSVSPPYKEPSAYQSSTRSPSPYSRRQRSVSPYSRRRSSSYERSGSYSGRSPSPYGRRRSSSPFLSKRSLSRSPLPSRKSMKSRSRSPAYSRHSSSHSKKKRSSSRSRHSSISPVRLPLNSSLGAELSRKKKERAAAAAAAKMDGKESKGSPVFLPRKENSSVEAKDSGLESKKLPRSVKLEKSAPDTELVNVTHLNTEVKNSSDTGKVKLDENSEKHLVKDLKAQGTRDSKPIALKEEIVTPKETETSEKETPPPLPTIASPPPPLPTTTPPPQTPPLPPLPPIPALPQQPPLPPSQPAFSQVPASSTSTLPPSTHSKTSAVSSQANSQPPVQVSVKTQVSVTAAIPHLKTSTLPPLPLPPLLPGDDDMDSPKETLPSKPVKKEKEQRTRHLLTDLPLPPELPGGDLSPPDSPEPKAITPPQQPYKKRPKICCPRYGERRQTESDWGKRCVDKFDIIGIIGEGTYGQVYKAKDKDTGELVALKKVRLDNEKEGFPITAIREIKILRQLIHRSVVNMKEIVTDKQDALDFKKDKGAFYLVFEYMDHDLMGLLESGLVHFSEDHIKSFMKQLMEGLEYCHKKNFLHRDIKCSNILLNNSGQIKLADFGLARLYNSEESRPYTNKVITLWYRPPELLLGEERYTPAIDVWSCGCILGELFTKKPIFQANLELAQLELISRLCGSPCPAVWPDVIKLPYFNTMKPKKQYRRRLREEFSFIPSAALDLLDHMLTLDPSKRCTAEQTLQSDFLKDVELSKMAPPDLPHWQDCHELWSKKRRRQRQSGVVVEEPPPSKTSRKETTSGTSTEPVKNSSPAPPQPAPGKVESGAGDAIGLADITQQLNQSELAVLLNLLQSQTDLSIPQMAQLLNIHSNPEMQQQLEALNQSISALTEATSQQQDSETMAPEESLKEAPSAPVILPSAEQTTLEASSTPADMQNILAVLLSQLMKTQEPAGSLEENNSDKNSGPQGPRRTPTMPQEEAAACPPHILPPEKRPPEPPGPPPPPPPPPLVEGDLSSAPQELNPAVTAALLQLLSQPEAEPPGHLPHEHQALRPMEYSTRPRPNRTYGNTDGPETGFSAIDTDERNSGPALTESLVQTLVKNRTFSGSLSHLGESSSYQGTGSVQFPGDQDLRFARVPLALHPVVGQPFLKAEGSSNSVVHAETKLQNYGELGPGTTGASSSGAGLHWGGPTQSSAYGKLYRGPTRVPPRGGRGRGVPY
Chain of CDK12 (O75909 whole entry partner): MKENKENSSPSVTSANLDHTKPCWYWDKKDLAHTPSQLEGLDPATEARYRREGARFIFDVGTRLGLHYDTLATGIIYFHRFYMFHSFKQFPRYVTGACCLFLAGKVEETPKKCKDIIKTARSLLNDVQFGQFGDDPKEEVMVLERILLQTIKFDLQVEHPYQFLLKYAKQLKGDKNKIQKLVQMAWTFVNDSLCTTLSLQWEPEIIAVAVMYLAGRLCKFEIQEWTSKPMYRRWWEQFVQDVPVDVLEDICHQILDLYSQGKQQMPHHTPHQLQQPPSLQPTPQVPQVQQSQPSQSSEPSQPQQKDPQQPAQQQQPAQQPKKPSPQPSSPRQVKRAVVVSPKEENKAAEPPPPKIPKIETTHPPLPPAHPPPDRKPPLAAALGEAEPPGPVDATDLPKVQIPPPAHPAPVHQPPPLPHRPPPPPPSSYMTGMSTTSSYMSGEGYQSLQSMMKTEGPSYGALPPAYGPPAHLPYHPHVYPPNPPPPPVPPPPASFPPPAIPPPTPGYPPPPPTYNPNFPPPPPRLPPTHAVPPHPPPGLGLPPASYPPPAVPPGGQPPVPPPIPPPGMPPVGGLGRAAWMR

For `FC(F)(F)c1ccc(-c2nnc(CNc3nc(N4CCOCC4)nc4c(Br)cnn34)[nH]2)cc1` [Example 1, 8-bromo-2-(morpholin-4-yl)-N-({5-[4-(trifluoromethyl)phenyl]-4H-1,2,4-triazol-3-yl}methyl)pyrazolo[1,5-a][1,3,5]triazin-4-amine], the results for the IC50 (at CDK9/CyclinT1; in assay [1]) were 4580 nM and 580 nM, respectively. Besides, the DC50 at CDK12 was found to be 2380 nM.
The like results for `FC(F)(F)Oc1ccc(-c2nnc(CNc3nc(N4CCOCC4)nc4c(Br)cnn34)[nH]2)cc1` [Example 2, 8-bromo-2-(morpholin-4-yl)-N-({5-[4-(trifluoromethoxy)phenyl]-4H-1,2,4-triazol-3-yl}methyl)pyrazolo[1,5-a][1,3,5]triazin-4-amine] were, in that order, 6350 nM, 370 nM and over 2790 nM.
Take `FC(F)(F)c1ccc(-c2cnc(CNc3nc(N4CCOCC4)nc4c(Br)cnn34)[nH]2)cc1` [Example 3, 8-bromo-2-(morpholin-4-yl)-N-({5-[4-(trifluoromethyl)phenyl]-1H-imidazol-2-yl}methyl)pyrazolo[1,5-a][1,3,5]triazin-4-amine]: the IC50 at CDK9/CyclinT1 is 15400 nM; in assay [1], 173 nM. Besides, the DC50 at CDK12 was over 2880 nM.
The like results for `FC(F)(F)Oc1ccc(-c2cnc(CNc3nc(N4CCOCC4)nc4c(Br)cnn34)[nH]2)cc1` [Example 4, 8-bromo-2-(morpholin-4-yl)-N-({5-[4-(trifluoromethoxy)phenyl]-1H-imidazol-2-yl}methyl)pyrazolo[1,5-a][1,3,5]triazin-4-amine] were, in that order, over 20000 nM, 103 nM and over 1000 nM.
Taken in the same sequence, the figures for `FC(F)(F)Oc1ccc(-c2nnc(CNc3nc(N4CCOCC4)nc4c(C(F)(F)F)cnn34)[nH]2)cc1` [Example 5, 2-(morpholin-4-yl)-N-({5-[4-(trifluoromethoxy)phenyl]-4H-1,2,4-triazol-3-yl}methyl)-8-(trifluoromethyl)pyrazolo[1,5-a][1,3,5]triazin-4-amine] were 17800 nM, 319 nM and 1000 nM.
Taken in the same sequence, the figures for `FC(F)(F)c1ccc(-c2nnc(CNc3nc(N4CCOCC4)nc4c(C(F)(F)F)cnn34)[nH]2)cc1` [Example 6, 2-(morpholin-4-yl)-8-(trifluoromethyl)-N-({5-[4-(trifluoromethyl)phenyl]-4H-1,2,4-triazol-3-yl}methyl)pyrazolo[1,5-a][1,3,5]triazin-4-amine] were over 20000 nM, 224 nM and 1000 nM.
As for `FC(F)(F)c1ccc(-c2cnc(CNc3nc(N4CCOCC4)nn4c(C(F)(F)F)cnc34)[nH]2)cc1` [Example 7, 2-(morpholin-4-yl)-7-(trifluoromethyl)-N-({5-[4-(trifluoromethyl)phenyl]-1H-imidazol-2-yl}methyl)imidazo[2,1-f][1,2,4]triazin-4-amine], the IC50 is over 20000 nM at CDK9/CyclinT1 and 103 nM in assay [1]. Further, at CDK12, the DC50 worked out at 671 nM.
As to `FC(F)(F)Oc1ccc(-c2cnc(CNc3nc(N4CCOCC4)nn4c(C(F)(F)F)cnc34)[nH]2)cc1` [Example 8, 2-(morpholin-4-yl)-N-({5-[4-(trifluoromethoxy)phenyl]-1H-imidazol-2-yl}methyl)-7-(trifluoromethyl)imidazo[2,1-f][1,2,4]triazin-4-amine], the IC50 was over 20000 nM on CDK9/CyclinT1 and 90.7 nM in assay [1]. Also, at CDK12, the DC50 amounted to 893 nM.
With `FC(F)(F)c1ccc(-c2cnc(CNc3nc(N4CCOCC4)nc4c(C(F)(F)F)cnn34)[nH]2)cc1` [Example 9, 2-(morpholin-4-yl)-8-(trifluoromethyl)-N-({5-[4-(trifluoromethyl)phenyl]-1H-imidazol-2-yl}methyl)pyrazolo[1,5-a][1,3,5]triazin-4-amine], the IC50 is over 19100 nM at CDK9/CyclinT1 and 109 nM in assay [1]. Besides, on CDK12, the DC50 was found to be 950 nM.
As to `COc1ccc(-c2nnc(CNc3nc(N4CCOCC4)nc4c(C(F)(F)F)cnn34)[nH]2)cn1` [Example 15, N-{[5-(6-methoxypyridin-3-yl)-4H-1,2,4-triazol-3-yl]methyl}-2-(morpholin-4-yl)-8-(trifluoromethyl)pyrazolo[1,5-a][1,3,5]triazin-4-amine], the IC50 in assay [1] was 355 nM. In addition, the DC50 at CDK12 is over 1000 nM.
Turning to `COc1ccc(-c2nnc(CNc3nc(N4CCOCC4)nn4c(C(F)(F)F)cnc34)[nH]2)cn1` [Example 18, N-{[5-(6-methoxypyridin-3-yl)-4H-1,2,4-triazol-3-yl]methyl}-2-(morpholin-4-yl)-7-(trifluoromethyl)imidazo[2,1-f][1,2,4]triazin-4-amine], in assay [1], the IC50 was determined as 104 nM. Also, at CDK12, the DC50 is over 1000 nM.
Turning to `FC(F)(F)Oc1ccc(-c2nnc(CNc3nc(N4CCOCC4)nn4c(C(F)(F)F)cnc34)[nH]2)cn1` [Example 19, 2-(morpholin-4-yl)-N-({5-[6-(trifluoromethoxy)pyridin-3-yl]-4H-1,2,4-triazol-3-yl}methyl)-7-(trifluoromethyl)imidazo[2,1-f][1,2,4]triazin-4-amine], the IC50 on CDK9/CyclinT1 is 506 nM; in assay [1], 63.2 nM.
For `FC(F)(F)c1ccc(-c2cnc(CNc3nc(N4CCOCC4)nc4c(C(F)(F)F)cnn34)[nH]2)cn1` [Example 24, 2-(morpholin-4-yl)-8-(trifluoromethyl)-N-({5-[6-(trifluoromethyl)pyridin-3-yl]-1H-imidazol-2-yl}methyl)pyrazolo[1,5-a][1,3,5]triazin-4-amine], the IC50 in assay [1] turned out to be 30.2 nM. At CDK12, the DC50 was over 1000 nM.
